# Data reported in patent publication US20080161232A1, “C5a Receptor Antagonist” (JERINI AG, priority 2005, published 2008).
# Starred links: 1 amine or outer side, 2 acyl side, 3 side chain; linkers in the order of their positions; H or OH if unused. Positions of bridges follow the written chain, without caps; N, C: chain ends. Non-standard residues stand in square brackets, D forms with d. Residues, ends and D or L forms follow the SMILES beside them. *: point of attachment. Phe(4-guanidino) = N=C(N)Nc1ccc(C[C@H](N)C(=O)O)cc1; X2 = O=C([C@H](CCCN(C1=NCCN1)C1=NCCN1)N[*:1])[*:2]; Orn(2-imidazolinyl) = N[C@@H](CCCNC1=NCCN1)C(=O)O; Phe(F5) = N[C@@H](Cc1c(F)c(F)c(F)c(F)c1F)C(=O)O; Phe(2,4-Cl2) = N[C@@H](Cc1ccc(Cl)cc1Cl)C(=O)O; dβ3hPhg = O=C(C[C@H](N[*:1])c1ccccc1)[*:2]; Phe(3-OMe) = COc1cccc(C[C@H](N)C(=O)O)c1; Phe(4-Cl) = N[C@@H](Cc1ccc(Cl)cc1)C(=O)O; Phe(4-F) = N[C@@H](Cc1ccc(F)cc1)C(=O)O; Phe(2-F) = N[C@@H](Cc1ccccc1F)C(=O)O; Bta = N[C@@H](Cc1csc2ccccc12)C(=O)O; Morpholinoacetyl = O=C(CN1CCOCC1)*; d(hCha) = N[C@H](CCC1CCCCC1)C(=O)O; Hyp = O=C(O)[C@@H]1C[C@@H](O)CN1; d(hLeu) = CC(C)CC[C@@H](N)C(=O)O; 2Pal = N[C@@H](Cc1ccccn1)C(=O)O; 2Thi = N[C@@H](Cc1cccs1)C(=O)O; dCha = N[C@H](CC1CCCCC1)C(=O)O; NMeS = CN[C@@H](CO)C(=O)O; Pip = O=C(O)[C@@H]1CCCCN1; Nle = CCCC[C@H](N)C(=O)O; Orn = NCCC[C@H](N)C(=O)O; Aze = O=C(O)[C@@H]1CCN1
# Biological target: T1, human C5aR(CD88) (Homo sapiens, UniProt P21730)
# T1 construct: expressed in transfected cells; host or cells: rat basophilic leukemia cells (RBL)
# T1 sequence (P21730 1-350): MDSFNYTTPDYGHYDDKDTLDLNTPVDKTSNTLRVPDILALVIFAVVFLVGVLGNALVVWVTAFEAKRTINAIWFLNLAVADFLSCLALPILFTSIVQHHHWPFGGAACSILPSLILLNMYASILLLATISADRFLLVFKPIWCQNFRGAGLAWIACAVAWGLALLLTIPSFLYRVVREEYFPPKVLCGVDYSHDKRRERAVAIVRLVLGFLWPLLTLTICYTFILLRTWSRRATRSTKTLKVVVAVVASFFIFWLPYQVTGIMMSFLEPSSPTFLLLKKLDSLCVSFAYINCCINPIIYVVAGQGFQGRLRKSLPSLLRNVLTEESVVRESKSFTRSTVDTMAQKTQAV
# Assay: Determination of the IC50 value in an enzyme release assay (functional assay, antagonistic activity)
# Format: cell-based
# Conditions: antagonistic activity; IC50 group in enzyme release assay, RBL cells expressing human C5aR(CD88); read-out: activity (group)
row,Structure (SMILES),IC50
1,"CCCC[C@@H]1NC(=O)[C@H](Cc2c[nH]c3ccccc23)NC(=O)[C@@H](CC2CCCCC2)NC(=O)[C@@H]2C[C@@H](O)CN2C(=O)[C@@H](NC(=O)[C@H](Cc2ccccc2)NC(C)=O)CCCNC1=O [Compound 144, Ac-Phe-[Orn-Hyp-cha-Trp-Nle]] (Ac-F[Orn][Hyp][dCha]W[Nle]; lactam 2-C)",0.01 to 0.02 µM
2,"CC(=O)N[C@@H](Cc1ccccc1)C(=O)N[C@@H](CCCN)C(=O)N1CCC[C@H]1C(=O)N[C@H](CCC(C)C)C(=O)N[C@@H](Cc1csc2ccccc12)C(=O)N[C@@H](Cc1c(F)c(F)c(F)c(F)c1F)C(N)=O [Compound 272, Ac-Phe-Orn-Pro-hle-Bta-5Ff-NH2] (Ac-F[Orn]P[d(hLeu)][Bta][Phe(F5)]-NH2)",0.05 to 0.2 µM
3,"CC(=O)NCC(=O)N[C@@H](Cc1ccccc1)C(=O)N[C@@H](CCCN)C(=O)N1CC[C@H]1C(=O)N[C@H](CCC1CCCCC1)C(=O)N[C@@H](Cc1csc2ccccc12)C(=O)N[C@@H](Cc1ccccc1)C(N)=O [Compound 156, Ac-Gly-Phe-Orn-Aze-hch-Bta-Phe-NH2] (Ac-GF[Orn][Aze][d(hCha)][Bta]F-NH2)",0.05 to 0.2 µM
4,"CC(=O)N[C@@H](Cc1ccccc1)C(=O)N[C@@H](CCCNC1=NCCN1)C(=O)N1CCC[C@H]1C(=O)N[C@H](CCC(C)C)C(=O)N[C@@H](Cc1csc2ccccc12)C(=O)N[C@@H](Cc1ccccc1)C(N)=O [Compound 226, Ac-Phe-Ffa-Pro-hle-Bta-Phe-NH2] (Ac-F[Orn(2-imidazolinyl)]P[d(hLeu)][Bta]F-NH2)",0.01 to 0.02 µM
5,"CC(=O)N[C@@H](Cc1ccc(NC(=N)N)cc1)C(=O)N[C@@H](Cc1ccccc1)C(=O)N[C@@H](CCCN)C(=O)N1CC[C@H]1C(=O)N[C@H](CC1CCCCC1)C(=O)N[C@@H](Cc1csc2ccccc12)C(=O)N[C@@H](Cc1ccccc1)C(N)=O [Compound 140, Ac-Guf-Phe-Orn-Aze-cha-Bta-Phe-NH2] (Ac-[Phe(4-guanidino)]F[Orn][Aze][dCha][Bta]F-NH2)",0.05 to 0.2 µM
6,"CC(=O)N[C@@H](Cc1ccc(F)cc1)C(=O)N[C@@H](CCCN)C(=O)N1CCC[C@H]1C(=O)N[C@H](CCC(C)C)C(=O)N[C@@H](Cc1csc2ccccc12)C(=O)N[C@@H](Cc1ccccc1)C(N)=O [Compound 170, Ac-Pff-Orn-Pro-hle-Bta-Phe-NH2] (Ac-[Phe(4-F)][Orn]P[d(hLeu)][Bta]F-NH2)",0.05 to 0.2 µM
7,"CC(=O)N[C@H](C(=O)N[C@@H](Cc1ccccc1)C(=O)N[C@@H](CCCN)C(=O)N1CC[C@H]1C(=O)N[C@H](CC1CCCCC1)C(=O)N[C@@H](Cc1csc2ccccc12)C(=O)N[C@@H](Cc1ccccc1)C(N)=O)[C@@H](C)O [Compound 314, Ac-Thr-Phe-Orn-Aze-cha-Bta-Phe-NH2] (Ac-TF[Orn][Aze][dCha][Bta]F-NH2)",0.02 to 0.05 µM
8,"CC(=O)N[C@@H](Cc1ccccc1)C(=O)N[C@@H](CCCN)C(=O)N1CCC[C@H]1C(=O)N[C@H](CC1CCCCC1)C(=O)N[C@@H](Cc1csc2ccccc12)C(=O)N[C@@H](Cc1ccccn1)C(N)=O [Compound 258, Ac-Phe-Orn-Pro-cha-Bta-Opa-NH2] (Ac-F[Orn]P[dCha][Bta][2Pal]-NH2)",0.05 to 0.2 µM
9,"CC(=O)N[C@@H](Cc1ccccc1)C(=O)N[C@@H](CCCN(C1=NCCN1)C1=NCCN1)C(=O)N1CC[C@H]1C(=O)N[C@H](CC1CCCCC1)C(=O)N[C@@H](Cc1csc2ccccc12)C(=O)N[C@@H](Cc1ccccc1)C(N)=O [Compound 223, Ac-Phe-Fcp-Aze-cha-Bta-Phe-NH2] (Ac-F[X2][Aze][dCha][Bta]F-NH2)",0.02 to 0.05 µM
10,"CC(C)CC[C@H]1NC(=O)[C@H](CO)N(C)C(=O)[C@@H](NC(=O)[C@@H](N)Cc2ccccc2)CCCNC(=O)[C@H](Cc2ccccc2)NC(=O)[C@H](Cc2ccc(F)cc2)NC1=O [Compound 373, H-Phe-[Orn-NMS-hle-Pff-Phe]] (H-F[Orn][NMeS][d(hLeu)][Phe(4-F)]F; lactam 2-C)",0.05 to 0.2 µM
11,"CC(=O)NCCC[C@H](NC(=O)[C@H](Cc1ccccc1)NC(C)=O)C(=O)N1CCC[C@H]1C(=O)N[C@H](CC1CCCCC1)C(=O)N[C@@H](Cc1csc2ccccc12)C(=O)N[C@@H](Cc1ccccc1)C(N)=O [Compound 232, Ac-Phe-OrA-Pro-cha-Bta-Phe-NH2] (Ac-F[Orn](Ac)P[dCha][Bta]F-NH2)",0.05 to 0.2 µM
12,"CC(=O)N[C@@H](Cc1ccccc1)C(=O)N[C@@H](CCCN)C(=O)N1CCC[C@H]1C(=O)N[C@H](CC1CCCCC1)C(=O)N[C@@H](Cc1csc2ccccc12)C(=O)N[C@@H](Cc1cccs1)C(N)=O [Compound 261, Ac-Phe-Orn-Pro-cha-Bta-Thi-NH2] (Ac-F[Orn]P[dCha][Bta][2Thi]-NH2)",0.01 to 0.02 µM
13,"N[C@@H](Cc1ccccc1)C(=O)N[C@H]1CCCNC(=O)[C@H](Cc2ccccc2)NC(=O)[C@H](Cc2ccc(F)cc2)NC(=O)[C@@H](CC2CCCCC2)NC(=O)[C@@H]2CCCN2C1=O [Compound 375, H-Phe-[Orn-Pro-cha-Pff-Phe]] (H-F[Orn]P[dCha][Phe(4-F)]F; lactam 2-C)",0.05 to 0.2 µM
14,"CC(=O)N[C@@H](CO)C(=O)N[C@@H](Cc1ccccc1)C(=O)N[C@@H](CCCN)C(=O)N1CC[C@H]1C(=O)N[C@H](CC1CCCCC1)C(=O)N[C@@H](Cc1csc2ccccc12)C(=O)N[C@@H](Cc1ccccc1)C(N)=O [Compound 310, Ac-Ser-Phe-Orn-Aze-cha-Bta-Phe-NH2] (Ac-SF[Orn][Aze][dCha][Bta]F-NH2)",0.01 to 0.02 µM
15,"CC(=O)N[C@@H](Cc1ccccc1F)C(=O)N[C@@H](CCCN)C(=O)N1CCC[C@H]1C(=O)N[C@H](CC1CCCCC1)C(=O)N[C@@H](Cc1csc2ccccc12)C(=O)N[C@@H](Cc1ccccc1)C(N)=O [Compound 166, Ac-Off-Orn-Pro-cha-Bta-Phe-NH2] (Ac-[Phe(2-F)][Orn]P[dCha][Bta]F-NH2)",0.02 to 0.05 µM
16,"CC(=O)N[C@@H](Cc1ccccc1)C(=O)N[C@@H](CCCN)C(=O)N1CCC[C@H]1C(=O)N[C@H](CCC(C)C)C(=O)N[C@@H](Cc1csc2ccccc12)C(=O)N[C@@H](Cc1ccc(Cl)cc1)C(N)=O [Compound 278, Ac-Phe-Orn-Pro-hle-Bta-Pcf-NH2] (Ac-F[Orn]P[d(hLeu)][Bta][Phe(4-Cl)]-NH2)",0.05 to 0.2 µM
17,"CCCC[C@@H]1NC(=O)[C@H](Cc2c[nH]c3ccccc23)NC(=O)[C@@H](CCC(C)C)NC(=O)[C@@H]2CCCN2C(=O)[C@@H](NC(=O)[C@@H](N)Cc2ccccc2)CCCNC1=O [Compound 381, H-Phe-[Orn-Pro-hle-Trp-Nle]] (H-F[Orn]P[d(hLeu)]W[Nle]; lactam 2-C)",0.02 to 0.05 µM
18,"COc1cccc(C[C@H](NC(C)=O)C(=O)N[C@@H](CCCN)C(=O)N2CCC[C@H]2C(=O)N[C@H](CCC(C)C)C(=O)N[C@@H](Cc2ccc(F)cc2)C(=O)N[C@@H](Cc2ccccc2)C(N)=O)c1 [Compound 164, Ac-Mmy-Orn-Pro-hle-Pff-Phe-NH2] (Ac-[Phe(3-OMe)][Orn]P[d(hLeu)][Phe(4-F)]F-NH2)",0.05 to 0.2 µM
19,"CC(=O)N[C@@H](Cc1ccccc1)C(=O)N[C@@H](CCCN)C(=O)N[C@@H](CO)C(=O)N[C@H](CC1CCCCC1)C(=O)N[C@@H](Cc1c[nH]c2ccccc12)C(=O)N[C@@H](Cc1ccccc1)C(N)=O [Compound 108, Ac-Phe-Orn-Ser-cha-Trp-Phe-NH2] (Ac-F[Orn]S[dCha]WF-NH2)",0.02 to 0.05 µM
20,"N[C@@H](CC(=O)N[C@@H](Cc1ccccc1)C(=O)N[C@H]1CCCNC(=O)[C@H](Cc2ccccc2)NC(=O)[C@H](Cc2c[nH]c3ccccc23)NC(=O)[C@@H](CC2CCCCC2)NC(=O)[C@@H]2C[C@@H](O)CN2C1=O)c1ccccc1 [Compound 318, Eby-Phe-[Orn-Hyp-cha-Trp-Phe]] (dβ3hPhg-F[Orn][Hyp][dCha]WF; lactam 2-C)",0.05 to 0.2 µM
21,"CC(=O)N[C@@H](Cc1ccccc1)C(=O)N[C@@H](CCCN)C(=O)N1CCCC[C@H]1C(=O)N[C@H](CC1CCCCC1)C(=O)N[C@@H](Cc1c[nH]c2ccccc12)C(=O)N[C@@H](Cc1ccccc1)C(=O)O [Compound 115, Ac-Phe-Orn-Pip-cha-Trp-Phe-OH] (Ac-F[Orn][Pip][dCha]WF-OH)",0.2 to 2 µM
22,"CC(=O)N[C@@H](Cc1ccccc1)C(=O)N[C@H]1CCCNC(=O)[C@H](Cc2ccccc2)NC(=O)[C@H](Cc2c[nH]c3ccccc23)NC(=O)[C@@H](CCC(C)C)NC(=O)[C@@H]2C[C@@H](O)CN2C1=O [Compound 181, Ac-Phe-[Orn-Hyp-hle-Trp-Phe]] (Ac-F[Orn][Hyp][d(hLeu)]WF; lactam 2-C)",0.02 to 0.05 µM
23,"O=C(CN1CCOCC1)N[C@@H](Cc1ccccc1)C(=O)N[C@H]1CCCNC(=O)[C@H](Cc2ccccc2)NC(=O)[C@H](Cc2c[nH]c3ccccc23)NC(=O)[C@@H](CC2CCCCC2)NC(=O)[C@@H]2C[C@@H](O)CN2C1=O [Compound 335, Fha-Phe-[Orn-Hyp-cha-Trp-Phe]] (Morpholinoacetyl-F[Orn][Hyp][dCha]WF; lactam 2-C)",0.05 to 0.2 µM
24,"CC(C)CC[C@H]1NC(=O)[C@@H]2C[C@@H](O)CN2C(=O)[C@@H](NC(=O)[C@@H](N)Cc2ccccc2)CCCNC(=O)[C@H](CC(C)C)NC(=O)[C@H](Cc2c[nH]c3ccccc23)NC1=O [Compound 368, H-Phe-[Orn-Hyp-hle-Trp-Leu]] (H-F[Orn][Hyp][d(hLeu)]WL; lactam 2-C)",0.02 to 0.05 µM
25,"CC(=O)N[C@@H](Cc1ccccc1)C(=O)N[C@@H](CCCN)C(=O)N1CCC[C@H]1C(=O)N[C@H](CCC(C)C)C(=O)N[C@@H](Cc1ccc(Cl)cc1Cl)C(=O)N[C@@H](Cc1ccccc1)C(N)=O [Compound 286, Ac-Phe-Orn-Pro-hle-Egy-Phe-NH2] (Ac-F[Orn]P[d(hLeu)][Phe(2,4-Cl2)]F-NH2)",0.05 to 0.2 µM
26,"CCCC[C@@H]1NC(=O)[C@H](Cc2c[nH]c3ccccc23)NC(=O)[C@@H](CC2CCCCC2)NC(=O)[C@H](CO)N(C)C(=O)[C@@H](NC(=O)[C@@H](N)Cc2ccccc2)CCCNC1=O [Compound 372, H-Phe-[Orn-NMS-cha-Trp-Nle]] (H-F[Orn][NMeS][dCha]W[Nle]; lactam 2-C)",0.05 to 0.2 µM
